Measured values from patent US10028482B2, “Disinfecting and deodorizing compositions and methods with novel polymeric binding system” (priority 2014, dated 2018).

Legend:
[1] = Retention of chlorine in air dried coatings on hard surface substrate (iodometric titration); assay type: physicochemical; details: Formica coupons
Protocol: The purpose of this experiment was to measure the effect of binder plus SHA on retention of chlorine in air dried coatings of water-based N-halamine formulations on a hard surface substrate. The procedure used one gram of MCDMH with or without 0.2 grams of hydroxyethylcellulose binder and 0.1 grams of SHA dissolved in 100 ml of water as the surface treatments. Solutions of MCDMH, MCDMH plus binder and SHA containing equivalent amounts of oxidative chlorine were applied to 9 cm^2 of hard surface substrate (Formica coupons), and allowed to dry at room temperature in a chemical fume hood. Determinations of chlorine levels per cm^2 were made on coupons sampled after 4 hours, 24 hours, 48 hours, and 96 hours. The chlorine remaining on each surface was measured by iodometric titration of solutions obtained after soaking of test samples in deionized water for 1 hour at room temperature.

[2] = Retention of chlorine in air dried coatings on soft surface substrates (iodometric titration); assay type: physicochemical
Description: The purpose of this experiment was to measure the beneficial effect of binder plus SHA on retention of chlorine in air dried coatings of N-halamine formulations on a soft surface substrate. Solutions of MCDMH, MCDMH plus hydroxyethylcellulose binder plus SHA, each containing equivalent amounts of oxidative Cl were applied to 9 cm^2 of soft surface substrate (cotton fabrics or paper), and allowed to air dry at room temperature in a chemical fume hood. Determinations of chlorine per cm^2 were made on fabrics sampled after 4 hours, 24 hours, 48 hours, and 96 hours. The remaining chlorine was measured by iodometric titration after soaking of test samples in deionized water for 1 hour at room temperature.

Chlorine Content ([1]; 4 h): 3.61 ×10^18 Cl/cm^2
Chlorine Content ([1]; 24 h): 3.25 ×10^18 Cl/cm^2
Chlorine Content ([1]; 48 h): 3.01 ×10^18 Cl/cm^2
Chlorine Content ([1]; 96 h): 2.75 ×10^18 Cl/cm^2
Chlorine Content ([2]; Cotton, 4 h): 2.41 ×10^18 Cl/cm^2
Chlorine Content ([2]; Cotton, 24 h): 2.04 ×10^18 Cl/cm^2
Chlorine Content ([2]; Cotton, 48 h): 1.56 ×10^18 Cl/cm^2
Chlorine Content ([2]; Cotton, 96 h): 0.89 ×10^18 Cl/cm^2
Chlorine Content ([2]; Paper, 4 h): 2.74 ×10^18 Cl/cm^2
Chlorine Content ([2]; Paper, 24 h): 2.12 ×10^18 Cl/cm^2
Chlorine Content ([2]; Paper, 48 h): 1.87 ×10^18 Cl/cm^2
Chlorine Content ([2]; Paper, 96 h): 1.04 ×10^18 Cl/cm^2
Compound: CC1(C)NC(=O)N(Cl)C1=O [MCDMH]
